The assay has as its target T1, hMC2 receptor (crude hMC2R membranes from CRE-bla-CHO-K1 cells stably expressing hMC2 receptor and hMRAP accessory protein) (Homo sapiens, UniProt Q01718).
T1 construct: crude membrane fractions
Description: hMC2 membrane binding assay ([125I]ACTH (1-39) Tyr23, SPA). The following applies: displacement of 0.2 nM [125I]ACTH (1-39) Tyr23 from hMC2R membranes, 1.5 hours at room temperature; read-out: MC2R binding potency. In a few lines:
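Ki values come from non-linear regression of SPA scintillation counts, with compounds displacing [125I]ACTH(1-39) Tyr23. Membranes come from CRE-bla-CHO-K1 cells stably expressing hMC2 receptor together with hMRAP. They are preincubated with WGA-coated PVT SPA beads in 50 mM HEPES pH 7.4 with 0.20% BSA, Mg2+, Ca2+ and protease inhibitors.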
T1 sequence (Q01718 whole entry): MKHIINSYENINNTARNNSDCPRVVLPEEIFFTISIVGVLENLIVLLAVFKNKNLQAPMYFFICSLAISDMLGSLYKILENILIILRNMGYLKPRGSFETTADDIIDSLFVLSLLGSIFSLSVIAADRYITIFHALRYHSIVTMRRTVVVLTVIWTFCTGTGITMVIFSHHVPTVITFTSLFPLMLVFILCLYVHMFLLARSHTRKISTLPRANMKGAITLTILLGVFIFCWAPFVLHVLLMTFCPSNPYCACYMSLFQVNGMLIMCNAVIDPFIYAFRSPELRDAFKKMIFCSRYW
T1 sequence (Q8TCY5 whole entry partner): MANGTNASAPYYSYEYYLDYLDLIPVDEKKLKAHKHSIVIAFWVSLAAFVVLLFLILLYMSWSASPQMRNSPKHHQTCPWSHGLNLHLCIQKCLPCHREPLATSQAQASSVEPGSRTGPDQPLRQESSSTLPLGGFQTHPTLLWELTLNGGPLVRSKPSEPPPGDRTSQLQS
With `CNC[C@H](C)NC(=O)C1(c2ccc(-c3cccn3C)nc2)CCN(c2ccc(C(F)(F)F)cc2F)CC1` [Compound 1-298, 1-[2-fluoro-4-(trifluoromethyl)phenyl]-4-[6-(1-methyl-1H-pyrrol-2-yl)pyridin-3-yl]-N-[(2S)-1-(methylamino)propan-2-yl]piperidine-4-carboxamide], the Ki is under 10 nM. As for `CCOc1ncccc1-c1ncc(C2(C(=O)N[C@@H](C)CNC)CCN(c3ccc(C(F)(F)F)cc3C#N)CC2)cc1F` [Compound 1-320, 1-[2-cyano-4-(trifluoromethyl)phenyl]-4-{2′-ethoxy-3-fluoro-[2,3′-bipyridin]-5-yl}-N-[(2S)-1-(methylamino)propan-2-yl]piperidine-4-carboxamide], the Ki was under 10 nM. Consider `Cn1cccc1-c1ccc(C2(C(=O)NCCN3CCC3)CCN(c3ccc(C(F)(F)F)cc3C#N)CC2)cn1` [Compound 1-248, N-[2-(azetidin-1-yl)ethyl]-1-[2-cyano-4-(trifluoromethyl)phenyl]-4-[6-(1-methyl-1H-pyrrol-2-yl)pyridin-3-yl]piperidine-4-carboxamide], for which the Ki is under 10 nM. In the case of `CCOc1ccccc1-c1ccc(C2(C(=O)NCCNC)CCN(c3ccc(C(F)(F)F)cc3F)CC2)cn1` [Compound 1-227, 4-[6-(2-ethoxyphenyl)pyridin-3-yl]-1-[2-fluoro-4-(trifluoromethyl)phenyl]-N-[2-(methylamino)ethyl]piperidine-4-carboxamide], the Ki is under 10 nM. Consider `CCOc1ncccc1-c1ccc(C2(C(=O)N[C@H]3CCN(C)C3)CCN(c3ccc(C(F)(F)F)cc3)CC2)cn1` [Compound 1-33, 4-{2′-ethoxy-[2,3′-bipyridin]-5-yl}-N-[(3S)-1-methylpyrrolidin-3-yl]-1-[4-(trifluoromethyl)phenyl]piperidine-4-carboxamide], for which the Ki was under 10 nM. The result for `CCOc1ncccc1-c1cnc(C2(C(=O)N[C@H]3CCN(C)C3)CCN(c3ccc(C(F)(F)F)cc3C#N)CC2)cn1` [Compound 1-58, 1-[2-cyano-4-(trifluoromethyl)phenyl]-4-[5-(2-ethoxypyridin-3-yl)pyrazin-2-yl]-N-[(3S)-1-methylpyrrolidin-3-yl]piperidine-4-carboxamide] reads under 10 nM. The result for `Cc1nocc1-c1ccc(C2(C(=O)N[C@H]3CCN(C)C3)CCN(c3ccc(C(F)(F)F)cc3C#N)CC2)cn1` [Compound 1-149, 1-[2-cyano-4-(trifluoromethyl)phenyl]-4-[6-(3-methyl-1,2-oxazol-4-yl)pyridin-3-yl]-N-[(3S)-1-methylpyrrolidin-3-yl]piperidine-4-carboxamide] reads under 10 nM; that for `COc1ncccc1-c1ncc(C2(C(=O)N[C@H]3CCN(C)C3)CCN(c3ccc(C(F)(F)F)nc3C#N)CC2)cc1F` [Compound 1-133, 1-[2-cyano-6-(trifluoromethyl)pyridin-3-yl]-4-{3-fluoro-2′-methoxy-[2,3′-bipyridin]-5-yl}-N-[(3S)-1-methylpyrrolidin-3-yl]piperidine-4-carboxamide], under 10 nM; that for `CCOc1ncccc1-c1ccc(C2(C(=O)N[C@@H]3CCN(C)C3)CCN(c3ccc(C(F)(F)F)cc3C#N)CC2)nn1` [Compound 1-57, 1-[2-cyano-4-(trifluoromethyl)phenyl]-4-[6-(2-ethoxypyridin-3-yl)pyridazin-3-yl]-N-[(3R)-1-methylpyrrolidin-3-yl]piperidine-4-carboxamide], under 10 nM. The result for `CCOc1ccccc1-c1ccc(C2(C(=O)N[C@H]3CCN(C)C3)CCN(c3ccc(C(F)(F)F)cc3F)CC2)nn1` [Compound 1-174, 4-[6-(2-ethoxyphenyl)pyridazin-3-yl]-1-[2-fluoro-4-(trifluoromethyl)phenyl]-N-[(3S)-1-methylpyrrolidin-3-yl]piperidine-4-carboxamide] reads under 10 nM; that for `CCOc1ncccc1-c1ccc(C2(C(=O)NCCN(C)C)CCN(c3ccc(C(F)(F)F)cc3C#N)CC2)nn1` [Compound 1-331, 1-[2-cyano-4-(trifluoromethyl)phenyl]-N-[2-(dimethylamino)ethyl]-4-[6-(2-ethoxypyridin-3-yl)pyridazin-3-yl]piperidine-4-carboxamide], under 10 nM; that for `CCOc1ncccc1-c1ccc(C2(NC(=O)N3CC(NC)C3)CCN(c3ccc(C(F)(F)F)cc3C#N)CC2)cn1` [Compound 2-23, N-{1-[2-cyano-4-(trifluoromethyl)phenyl]-4-{2′-ethoxy-[2,3′-bipyridin]-5-yl}piperidin-4-yl}-3-(methylamino)azetidine-1-carboxamide], under 10 nM. Take `CCOc1ccccc1-c1ncc(C2(C(=O)N[C@@H]3CCN(C)C3)CCN(c3ccc(C(F)(F)F)cc3C#N)CC2)cc1F` [Compound 1-123, 1-[2-cyano-4-(trifluoromethyl)phenyl]-4-[6-(2-ethoxyphenyl)-5-fluoropyridin-3-yl]-N-[(3R)-1-methylpyrrolidin-3-yl]piperidine-4-carboxamide]: the Ki is under 10 nM. The result for `CCc1ccccc1-c1ccc(C2(C(=O)N[C@@H]3CCN(C)C3)CCN(c3ccc(C(F)(F)F)cc3C#N)CC2)cn1` [Compound 1-60, 1-[2-cyano-4-(trifluoromethyl)phenyl]-4-[6-(2-ethylphenyl)pyridin-3-yl]-N-[(3R)-1-methylpyrrolidin-3-yl]piperidine-4-carboxamide] reads under 10 nM; that for `CCOc1ncccc1-c1ccc(C2(C(=O)NC[C@@H](C)N(C)C)CCN(c3ccc(C(F)(F)F)cc3C#N)CC2)cn1` [Compound 1-333, 1-[2-cyano-4-(trifluoromethyl)phenyl]-N-[(2R)-2-(dimethylamino)propyl]-4-{2′-ethoxy-[2,3′-bipyridin]-5-yl}piperidine-4-carboxamide], under 10 nM. Consider `CCOc1ncccc1-c1ccc(C2(C(=O)NC[C@H](CO)N(C)C)CCN(c3ccc(C(F)(F)F)cc3C#N)CC2)cn1` [Compound 1-45, 1-[2-cyano-4-(trifluoromethyl)phenyl]-N-[(2R)-2-(dimethylamino)-3-hydroxypropyl]-4-{2′-ethoxy-[2,3′-bipyridin]-5-yl}piperidine-4-carboxamide], for which the Ki was under 10 nM.

For the compound `Cn1cccc1-c1ccc(C2(NC(=O)[C@H]3CCNC3)CCN(c3ccc(C(F)(F)F)cc3C#N)CC2)cn1` [Compound 2-44, (3S)—N-{1-[2-cyano-4-(trifluoromethyl)phenyl]-4-[6-(1-methyl-1H-pyrrol-2-yl)pyridin-3-yl]piperidin-4-yl}pyrrolidine-3-carboxamide], the Ki was under 10 nM. Take `CCOc1ncccc1-c1ccc(C2(C(=O)N[C@@H]3CCN(C)C3)CCN(c3ccc(C(F)(F)F)nc3C#N)CC2)cn1` [Compound 1-24, 1-[2-cyano-6-(trifluoromethyl)pyridin-3-yl]-4-{2′-ethoxy-[2,3′-bipyridin]-5-yl}-N-[(3R)-1-methylpyrrolidin-3-yl]piperidine-4-carboxamide]: the Ki was under 10 nM.

In the case of `Cc1sccc1-c1ccc(C2(C(=O)N[C@@H]3CCN(C)C3)CCN(c3ccc(C(F)(F)F)cc3C#N)CC2)cn1` [Compound 1-112, 1-[2-cyano-4-(trifluoromethyl)phenyl]-N-[(3R)-1-methylpyrrolidin-3-yl]-4-[6-(2-methylthiophen-3-yl)pyridin-3-yl]piperidine-4-carboxamide], the Ki was under 10 nM.

For `COc1ccc(F)cc1-c1ncc(C2(C(=O)N[C@H]3CCN(C)C3)CCN(c3ccc(C(F)(F)F)cc3C#N)CC2)cc1F` [Compound 1-195, 1-[2-cyano-4-(trifluoromethyl)phenyl]-4-[5-fluoro-6-(5-fluoro-2-methoxyphenyl)pyridin-3-yl]-N-[(3S)-1-methylpyrrolidin-3-yl]piperidine-4-carboxamide], the Ki was under 10 nM.

As for `CCOc1ncccc1-c1ncc(C2(C(=O)N[C@@H]3CCN(C)C3)CCN(c3ccc(C(F)(F)F)cc3C#N)CC2)cc1F` [Compound 1-108, 1-[2-cyano-4-(trifluoromethyl)phenyl]-4-{2′-ethoxy-3-fluoro-[2,3′-bipyridin]-5-yl}-N-[(3R)-1-methylpyrrolidin-3-yl]piperidine-4-carboxamide], the Ki was under 10 nM. With `CN1CCC[C@H]1CNC(=O)C1(c2ccc(-c3cccn3C)nc2)CCN(c2ccc(C(F)(F)F)cc2C#N)CC1` [Compound 1-229, 1-[2-cyano-4-(trifluoromethyl)phenyl]-4-[6-(1-methyl-1H-pyrrol-2-yl)pyridin-3-yl]-N-{[(2S)-1-methylpyrrolidin-2-yl]methyl}piperidine-4-carboxamide] the figure was 10 to 100 nM; with `COc1ncccc1-c1ncc(C2(C(=O)N[C@@H]3CCN(C)C3)CCN(c3ccc(C(F)(F)F)cc3C#N)CC2)cc1F` [Compound 1-131, 1-[2-cyano-4-(trifluoromethyl)phenyl]-4-{3-fluoro-2′-methoxy-[2,3′-bipyridin]-5-yl}-N-[(3R)-1-methylpyrrolidin-3-yl]piperidine-4-carboxamide], under 10 nM.

As to `CN(C)CC1(NC(=O)C2(c3ccc(-c4cccn4C)nc3)CCN(c3ccc(C(F)(F)F)cc3C#N)CC2)COC1` [Compound 1-262, 1-[2-cyano-4-(trifluoromethyl)phenyl]-N-{3-[(dimethylamino)methyl]oxetan-3-yl}-4-[6-(1-methyl-1H-pyrrol-2-yl)pyridin-3-yl]piperidine-4-carboxamide], the Ki was under 10 nM.

Turning to `CCOc1ncccc1-c1ccc(C2(C(=O)NC[C@H](CO)NC)CCN(c3ccc(C(F)(F)F)cc3C#N)CC2)cn1` [Compound 1-44, 1-[2-cyano-4-(trifluoromethyl)phenyl]-4-{2′-ethoxy-[2,3′-bipyridin]-5-yl}-N-[(2R)-3-hydroxy-2-(methylamino)propyl]piperidine-4-carboxamide], the Ki was under 10 nM.

Source of the values: patent US12492181B2, “Gem-disubstituted piperidine melanocortin subtype-2 receptor (MC2R) antagonists and uses thereof” (Crinetics Pharmaceuticals, Inc., priority 2019, dated 2025).
